Earlier results as cited in patent US10011570B2, “Nucleic acid binding dyes with improved safety” (Biotium, Inc., priority 2013, dated 2018).

System: cellular mutation caused by UV light or other known mutagens
Conditions: cited from earlier work

In the case of `CCCN(CCCN(C)C)c1cc(/C=C2/Sc3ccccc3N2C)c2ccccc2[n+]1-c1ccccc1` [SYBR Green], the “effect on cellular mutation caused by UV light or other known mutagens” value is listed as “can worsen cellular mutation” and the “power in worsening mutation relative to ethidium bromide” value is listed as about 100 times.
